These results are taken from PubChem BioAssay (NCI).

Among the test systems are SF-539 CNS; SW-620 colon; OVCAR-8 ovarian; MALME-3M melanoma; NCI/ADR-RES ovarian; MDA-MB-435; SR leukemia; NCI-H226 lung; NCI-H460 lung; UACC-257 melanoma.
Common to all, as to assay: NCI-60 cell line screen, 48 h

Where “and” joins values, the source holds several entries; their conditions need not be identical. Equal entries are not always repeated.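 How tested: cells in 96-well plates exposed to compound for 48 hours at five concentrations. Abbreviation: GI50, concentration required for 50% inhibition of growth. Definition used: TGI = concentration required for complete inhibition of growth.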 Where a SMILES comes first, the peptide text is derived from it. The star is where a group is joined. Trt = c1ccc(C(c2ccccc2)(c2ccccc2)*)cc1; Cbz = O=C(OCc1ccccc1)*

In the case of `Cc1ccc(CNc2ccc(Br)cc2)cc1`, the TGI is over 100 µM in the assay on SF-539 CNS; over 100 µM in the assay on SW-620 colon; 65.3 µM with OVCAR-8 ovarian; 64 µM with MALME-3M melanoma; over 100 µM with NCI/ADR-RES ovarian; over 100 µM in the assay on MDA-MB-435. Also, the TGI in the assay with SR leukemia, in the assay with NCI-H226 lung, with NCI-H460 lung and with UACC-257 melanoma was over 100 µM each time.
In the case of `O=C1/C(=C/c2ccc(Cl)c(Cl)c2)CN(C(=O)C(Cl)Cl)C/C1=C\c1ccc(Cl)c(Cl)c1`, the GI50 was 0.184 µM with SF-539 CNS; 0.0364 µM in the assay on SW-620 colon; 0.0505 µM in the assay with OVCAR-8 ovarian; 0.237 µM with MALME-3M melanoma; 0.107 µM with NCI/ADR-RES ovarian; 0.222 µM in the assay on MDA-MB-435. Also, the GI50 is 0.0267 µM in the assay on SR leukemia, 0.192 µM with NCI-H226 lung, 0.261 µM in the assay with NCI-H460 lung and 0.666 µM with UACC-257 melanoma. Besides, the TGI in the assay with SF-539 CNS is 0.444 µM; in the assay on SW-620 colon, 0.196 µM; in the assay with OVCAR-8 ovarian, 1.51 µM; with MALME-3M melanoma it was 0.669 µM; in the assay with NCI/ADR-RES ovarian it was over 100 µM; with MDA-MB-435, 0.546 µM. Besides, the TGI was over 100 µM in the assay with SR leukemia, 0.366 µM with NCI-H226 lung, 0.935 µM with NCI-H460 lung and 2.24 µM in the assay with UACC-257 melanoma.
Turning to `CC(C)=CCc1cc2c(cc1O)C1=C(C(=O)C3=C(C1=O)S(=O)(=O)CCN3)C(C=C(C)C)O2` (centres undefined), the GI50 in the assay with SF-539 CNS is 1.96 µM; in the assay on SW-620 colon, 0.554 µM; in the assay with OVCAR-8 ovarian it was 0.552 µM; with MALME-3M melanoma it was 0.122 µM; with NCI/ADR-RES ovarian, 6.66 µM; in the assay on MDA-MB-435, 0.061 µM. Besides, the GI50 in the assay on SR leukemia is 0.87 µM; with NCI-H226 lung, 1.6 µM; with NCI-H460 lung, 0.454 µM; in the assay on UACC-257 melanoma it was 0.482 µM. In addition, the TGI in the assay on SF-539 CNS worked out at 4.02 µM; in the assay with SW-620 colon, 1.76 µM; with OVCAR-8 ovarian, 2.12 µM; in the assay on MALME-3M melanoma, 0.397 µM; with NCI/ADR-RES ovarian it was 16.7 µM; in the assay on MDA-MB-435, 0.227 µM. The TGI was found to be 10.9 µM with SR leukemia, 5.22 µM in the assay with NCI-H226 lung, 2.3 µM in the assay on NCI-H460 lung and 1.5 µM in the assay with UACC-257 melanoma.
For the molecule `COC(=O)C(CO)NC(=O)C(CSC(c1ccccc1)(c1ccccc1)c1ccccc1)NC(=O)OCc1ccccc1` (centres undefined) (Cbz-Cys(Trt)-Ser-OMe; configuration not given here), the TGI in the assay with SF-539 CNS worked out at 26.3 µM; with SW-620 colon, 32.4 µM; in the assay on OVCAR-8 ovarian, 36.5 µM; in the assay with MALME-3M melanoma it was 28.5 µM; in the assay with NCI/ADR-RES ovarian, 49.5 µM; in the assay with MDA-MB-435, 30.2 µM. In addition, the TGI in the assay on SR leukemia was 0.221 µM; in the assay on NCI-H226 lung, 26.4 µM; in the assay with NCI-H460 lung, 33.6 µM; in the assay with UACC-257 melanoma, 25.6 µM.
Take `Oc1ccc(Cl)cc1C(c1cc(Cl)ccc1O)C(Cl)(Cl)Cl`: the GI50 in the assay with SF-539 CNS is 1.69 µM; in the assay with SW-620 colon, 1.73 µM; with OVCAR-8 ovarian it was 2.89 µM; with MALME-3M melanoma, 1.5 µM; in the assay with NCI/ADR-RES ovarian it was 1.99 µM; in the assay on MDA-MB-435, 1.95 µM. The GI50 in the assay with SR leukemia was 1.5 µM; in the assay on NCI-H226 lung, 1.94 µM; in the assay on NCI-H460 lung it was 2.13 µM; with UACC-257 melanoma it was 2.68 µM. Further, the TGI was found to be 3.67 µM with SF-539 CNS; 3.3 µM in the assay with SW-620 colon; 9.59 µM in the assay with OVCAR-8 ovarian; 3.91 µM in the assay on MALME-3M melanoma; 4.67 µM with NCI/ADR-RES ovarian; 4.21 µM in the assay with MDA-MB-435. For the same molecule, the TGI in the assay with SR leukemia was determined as 5.34 µM; in the assay on NCI-H226 lung, 4.81 µM; in the assay with NCI-H460 lung, 4.58 µM; in the assay with UACC-257 melanoma, 10.3 µM.
As to `CO[C@H]1C[C@@H]2CC[C@@H](C)[C@@](O)(O2)C(=O)C(=O)N2CCCC[C@H]2C(=O)O[C@H]([C@H](C)C[C@@H]2CC[C@@H](OC(=O)C(C)(CO)CO)[C@H](OC)C2)CC(=O)[C@H](C)/C=C(\C)[C@@H](O)[C@@H](OC)C(=O)[C@H](C)C[C@H](C)\C=C/C=C/C=C/1C`, the GI50 was 0.00576 µM with SF-539 CNS; over 10 µM in the assay with SW-620 colon; 0.00766 µM with MALME-3M melanoma; over 4.91 µM with NCI/ADR-RES ovarian; 2.36 µM in the assay with MDA-MB-435; 0.00251 µM in the assay with SR leukemia. Further, the values for the GI50 with NCI-H226 lung, in the assay on NCI-H460 lung and in the assay on UACC-257 melanoma were 0.0273 µM, 0.00131 µM and over 10 µM, respectively. In addition, the TGI in the assay on SF-539 CNS, in the assay on SW-620 colon, in the assay on OVCAR-8 ovarian, in the assay on MALME-3M melanoma, in the assay with NCI/ADR-RES ovarian and in the assay with MDA-MB-435 was over 10 µM in each case. For the same molecule, the TGI in the assay on SR leukemia, in the assay on NCI-H226 lung, in the assay on NCI-H460 lung and in the assay on UACC-257 melanoma was over 10 µM in each case.
As to `C=C1C[C@H]2C=Nc3cc(OCCCOc4cc5c(cc4OC)C(=O)N4CC(=C)C[C@H]4C=N5)c(OC)cc3C(=O)N2C1`, the GI50 with SF-539 CNS was 0.00459 µM; with SW-620 colon, 0.0144 µM; in the assay with MALME-3M melanoma it was 0.0122 µM; in the assay on NCI/ADR-RES ovarian it was 0.317 µM and 0.0972 µM; in the assay with MDA-MB-435, 0.0134 µM and < 0.0148 µM; with NCI-H460 lung, 0.000277 µM. The GI50 in the assay with UACC-257 melanoma is 0.0213 µM. In addition, the TGI in the assay on SF-539 CNS is 0.0117 µM and 0.0286 µM; with SW-620 colon, over 85.2 µM; with OVCAR-8 ovarian, over 18.4 µM; in the assay with MALME-3M melanoma it was 0.0292 µM and < 0.0144 µM; in the assay on NCI/ADR-RES ovarian, 2.84 µM; in the assay on MDA-MB-435, 0.0339 µM and < 0.215 µM. For the same molecule, the TGI in the assay with SR leukemia is 0.218 µM; in the assay with NCI-H226 lung it was 0.0482 µM; in the assay on NCI-H460 lung, 0.544 µM; in the assay with UACC-257 melanoma it was 0.0421 µM and 0.0917 µM.
On to `CSC1=NC(=Nc2c(C)cccc2C)C2(CCC(C(C)(C)C)CC2)N1c1ccc(Cl)cc1` (centres undefined), for which the GI50 with SF-539 CNS was 71.7 µM; in the assay with SW-620 colon, 27 µM; with OVCAR-8 ovarian, 15.1 µM; in the assay with MALME-3M melanoma it was 42.6 µM; in the assay on NCI/ADR-RES ovarian, 77.7 µM; in the assay with MDA-MB-435, 30.9 µM. Moreover, the GI50 was 4.21 µM in the assay with SR leukemia, 8.93 µM in the assay with NCI-H226 lung and 4.68 µM in the assay with NCI-H460 lung. In addition, the TGI in the assay with SF-539 CNS, with SW-620 colon, with OVCAR-8 ovarian, in the assay on MALME-3M melanoma, in the assay with NCI/ADR-RES ovarian and in the assay with MDA-MB-435 was over 100 µM in each case. Also, the TGI in the assay on SR leukemia, with NCI-H226 lung and in the assay with NCI-H460 lung was over 100 µM each time.
Regarding `CCOCC1(COCC)CCC(c2[nH]ncc2CN(C)CCNC)CC1`, the GI50 in the assay with SF-539 CNS, with SW-620 colon, in the assay on OVCAR-8 ovarian, in the assay with MALME-3M melanoma, with NCI/ADR-RES ovarian and in the assay with MDA-MB-435 was over 100 µM each time. Moreover, the GI50 was 23.7 µM in the assay with SR leukemia, over 100 µM in the assay on NCI-H226 lung, over 100 µM in the assay with NCI-H460 lung and over 100 µM with UACC-257 melanoma. Further, the TGI in the assay with SF-539 CNS, in the assay with SW-620 colon, in the assay on OVCAR-8 ovarian, with MALME-3M melanoma, in the assay with NCI/ADR-RES ovarian and in the assay with MDA-MB-435 was over 100 µM throughout. For the same molecule, the TGI in the assay on SR leukemia, in the assay with NCI-H226 lung, in the assay with NCI-H460 lung and in the assay on UACC-257 melanoma was over 100 µM each time.
Take `COc1cc2oc(-c3cccc(C(=O)Nc4ccc(Cl)cc4)c3)cc(=O)c2c(OC)c1OC`: the GI50 with SF-539 CNS is 2.56 µM; in the assay with SW-620 colon it was 4.87 µM; with OVCAR-8 ovarian, 3.44 µM; with MALME-3M melanoma, 2.48 µM; in the assay on NCI/ADR-RES ovarian, 1.81 µM; in the assay with MDA-MB-435, 3.15 µM. Besides, the GI50 with SR leukemia was 0.493 µM; in the assay on NCI-H226 lung, 2.24 µM; in the assay on NCI-H460 lung, 2.76 µM; in the assay on UACC-257 melanoma, 2.53 µM. Also, the TGI is over 100 µM with SF-539 CNS; over 100 µM with SW-620 colon; over 100 µM with OVCAR-8 ovarian; 7.26 µM in the assay on MALME-3M melanoma; over 100 µM in the assay on NCI/ADR-RES ovarian; over 100 µM with MDA-MB-435. The TGI in the assay on SR leukemia is over 100 µM; in the assay with NCI-H226 lung, 94.8 µM; in the assay with NCI-H460 lung, over 100 µM; with UACC-257 melanoma, 5.72 µM.
With `c1cc(N[C@@H]2CCNC2)nc(-c2cnc3ccc(-c4cn[nH]c4)cn23)c1`, the GI50 is 1.61 µM with SF-539 CNS; 6.83 µM in the assay on SW-620 colon; 6.47 µM with OVCAR-8 ovarian; 6.98 µM with MALME-3M melanoma; over 100 µM in the assay with NCI/ADR-RES ovarian; 11.2 µM with MDA-MB-435. The GI50 in the assay on SR leukemia is 2.37 µM; in the assay with NCI-H226 lung, 4.13 µM; in the assay with NCI-H460 lung it was 16.7 µM; in the assay on UACC-257 melanoma, 16.1 µM. The TGI in the assay on SF-539 CNS is 8.17 µM; in the assay with SW-620 colon it was 52.1 µM; in the assay with OVCAR-8 ovarian it was over 92.8 µM; with MALME-3M melanoma it was 26.9 µM; in the assay with NCI/ADR-RES ovarian it was over 100 µM; with MDA-MB-435, 26.7 µM. Also, the TGI in the assay on SR leukemia was 10.1 µM; in the assay on NCI-H226 lung, over 100 µM; in the assay with NCI-H460 lung it was 80.3 µM; with UACC-257 melanoma, 53.3 µM.
